The text below walks through data of PMC2866327, “Designed Inhibitors of Insulin-Degrading Enzyme Regulate the Catabolism and Activity of Insulin” (PLoS ONE, 2010).

Values joined by “and” are separate entries in the source; they are usually repeats but may differ in a detail not shown here. Equal values may be shown once. Read-outs that look alike come from different tables or passages of the source.

For data set [1], the target named is T1, IDE (Homo sapiens, UniProt P14735). As to conditions: cited from earlier work; for IC50: known IDE inhibitors, no reference given.
The target of data set [2] is T1, IDE. Nature of the data set: In vitro IDE enzymatic assay (hydrolysis of FRET1, SP1, FAβB, 125I-insulin or insulin by HTRF). It counts as biochemical. Also on record: made in house; host or cells: bacteria. The note with it: for IC50: commercially available hydroxamic acids. For orientation: TR-FRET usually uses a lanthanide donor and a delayed reading to cut background.
Procedure: Degradation of unmodified recombinant human insulin (Sigma-Aldrich) and FITC-ins [28] (Invitrogen) was assessed using a homogeneous time-resolved fluorescence (HTRF)-based assay (CIS-Bio).

A further data set deals with MMP-8. The note with it: best known target MMP-8; no reference given; cited from earlier work.
Data set [3] relates to IR autophosphorylation (Tyr 1146) in CHO-IR cells. As to the kind of experiment: IR autophosphorylation assay (ELISA). Format: cell-based, human. The note with it: CHO-IR cells cold-loaded with insulin, 10 µM inhibitor, 5 min at 37°C. How it is done: CHO-IR cells were grown to near confluency in 6-well plates, washed, then starved for 6 h in insulin-free medium (DMEM/0.1% BSA). Cells were then cold-loaded with human insulin essentially as described. Briefly, after cooling the cells to 4°C, the medium was replaced with ice-cold HBSS/1% BSA supplemented with insulin (10 nM), incubated at 4°C for 1 h, washed 3 times with ice-cold HBSS/1% BSA. After addition of ice-cold HBSS/1% BSA supplemented with IDE inhibitors (10 µM) or DMSO, the cells were incubated at 37°C for 5 min, then rapidly cooled on ice. Cell lysates were harvested using manufacturer-provided cell-lysis buffer (Cell Signaling Technology) supplemented with additional phosphatase inhibitors (Millipore). IR autophosphorylation (Tyr 1146) and total IR levels were quantified by ELISAs (Cell Signaling Technology), and confirmed by western blotting with the same antibodies used for ELISAs or GAPDH as a loading control.
In general terms: An ELISA detects its analyte on a solid surface through an enzyme-linked reagent.

The test system of data set [4] is CHO-IR cells. As to the kind of experiment: Quantification of prebound 125I-insulin catabolism. It counts as cell-based. The note with it: 10 µM inhibitor, 5 min at 37°C. As to the method:
Confluent monolayers of CHO-IR cells grown in 6-well culture dishes were cold loaded with 240 pM ^125I-insulin for 1 h and washed 3 times with ice-cold HBSS/1% BSA. […] Following harvesting of cells by scraping, ^125I levels were quantified by gamma counter (Beckman).

A further data set has as its system MMP-3. The note with it: best known target MMP-3; no reference given; cited from earlier work.
Data set [5] has as its target T1, IDE. Nature of the data set: High-throughput screening, Aβ degradation assay. Format: biochemical. As to conditions: high-throughput screening hit. An excerpt: The few IDE inhibitors currently in use are generally non-selective and/or highly toxic, and all suffer from extremely low potency, requiring mM concentrations to achieve complete inhibition (Table S1). To develop improved inhibitors of IDE, we initially conducted high-throughput screening on ∼115,000 compounds, using a previously developed Aβ degradation assay. Although several inhibitors were discovered, most of these were either toxic, thiol-alkylating compounds [18] […] Among the remaining inhibitors, just a single compound, known as nullscript

The target of data set [6] is T1, IDE. As to the kind of experiment: Cell-based assays (not shown).
For a further data set, the system named is TACE. As to conditions: best known target TACE; no reference given; cited from earlier work.
The subject of another data set is MMP-13. The note with it: best known target MMP-13; no reference given; cited from earlier work.
Another data set deals with MMP-2. The note with it: best known target MMP-2; no reference given; cited from earlier work.
The next data set deals with HeLa cells. As to the kind of experiment: Cell-based extracellular insulin degradation assay, HeLa cells. The text has this: (§1) Recombinant human insulin (Sigma) was applied to CHO-IR cells or HeLa cells grown to near-confluency on 96-well plates under normal cell culture conditions, and its disappearance over time in the presence of different concentrations of IDE inhibitors or vehicle was quantified using a HTRF-based insulin assay (CIS-Bio). CHO-IR cells were a generous gift from Dr. Michel Bernier (National Instutute on Aging) and HeLa cells were purchased from American Type Culture Collection.

In data set [7] the test system is CHO-IR cells. Nature of the data set: Cell-based extracellular insulin degradation assay, CHO-IR cells.
Text: as §1

The target of another data set is T2, cathepsin D (Bos taurus, UniProt P80209).
T2 construct: purchased Sigma-Aldrich
As to the kind of experiment: Cathepsin D activity (Cathepsin D Assay Kit). It counts as biochemical.

Data set [8] relates to CHO-IR cells. Nature of the data set: Live-cell imaging of intracellular insulin catabolism (FITC-ins). Format: cell-based. The note with it: FITC-ins-loaded CHO-IR cells, Ii1 10 µM, 22°C. As to the method:
CHO-IR cells were cultured on poly-D-lysine glass bottom culture dishes (MatTek Corp.), loaded with FITC-ins (2 µM; Invitrogen) for 2 h at 37°C, washed with Hank's balanced salt solution (HBSS), then imaged consecutively at fixed intervals by fluorescence microscopy at 22°C. Intracellular and extracellular fluorescence in the resulting images was quantified using MetaMorph software according to manufacturer's recommendations (Molecular Devices).

The test system of data set [9] is CHO-IR cells.
The mark [10] stands for this setting: focused library of retro-inverso peptide hydroxamates Xaa-Arg-Tyr, modification at P1', Fig. 2B, read-out: Ki.

T1 sequence (P14735 whole entry): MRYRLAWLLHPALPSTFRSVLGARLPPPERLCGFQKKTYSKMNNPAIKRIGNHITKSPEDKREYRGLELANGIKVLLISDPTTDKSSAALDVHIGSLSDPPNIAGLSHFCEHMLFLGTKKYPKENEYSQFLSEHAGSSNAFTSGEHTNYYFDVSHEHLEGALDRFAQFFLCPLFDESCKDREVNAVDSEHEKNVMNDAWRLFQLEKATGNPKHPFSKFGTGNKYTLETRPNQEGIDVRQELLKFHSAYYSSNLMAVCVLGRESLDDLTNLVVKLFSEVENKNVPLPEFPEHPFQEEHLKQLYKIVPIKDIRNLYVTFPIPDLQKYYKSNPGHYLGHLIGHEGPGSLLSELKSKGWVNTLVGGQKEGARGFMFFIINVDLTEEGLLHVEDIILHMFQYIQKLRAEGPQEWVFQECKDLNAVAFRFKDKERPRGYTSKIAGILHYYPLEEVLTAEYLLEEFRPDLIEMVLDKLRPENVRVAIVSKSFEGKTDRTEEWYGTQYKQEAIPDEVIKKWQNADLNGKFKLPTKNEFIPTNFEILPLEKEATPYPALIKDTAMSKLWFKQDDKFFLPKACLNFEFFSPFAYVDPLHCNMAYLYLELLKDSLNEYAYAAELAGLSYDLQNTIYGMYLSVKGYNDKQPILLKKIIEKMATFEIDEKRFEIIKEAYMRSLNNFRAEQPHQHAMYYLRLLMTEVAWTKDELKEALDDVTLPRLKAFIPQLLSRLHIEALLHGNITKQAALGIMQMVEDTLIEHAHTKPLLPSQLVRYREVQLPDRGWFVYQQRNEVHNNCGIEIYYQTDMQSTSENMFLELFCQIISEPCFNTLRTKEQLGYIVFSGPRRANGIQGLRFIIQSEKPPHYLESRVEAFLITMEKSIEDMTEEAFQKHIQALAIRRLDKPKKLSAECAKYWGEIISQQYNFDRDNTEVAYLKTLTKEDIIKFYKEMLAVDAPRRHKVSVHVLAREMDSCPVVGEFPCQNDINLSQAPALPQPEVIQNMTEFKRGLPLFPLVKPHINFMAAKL
T2 sequence (P80209 45-390): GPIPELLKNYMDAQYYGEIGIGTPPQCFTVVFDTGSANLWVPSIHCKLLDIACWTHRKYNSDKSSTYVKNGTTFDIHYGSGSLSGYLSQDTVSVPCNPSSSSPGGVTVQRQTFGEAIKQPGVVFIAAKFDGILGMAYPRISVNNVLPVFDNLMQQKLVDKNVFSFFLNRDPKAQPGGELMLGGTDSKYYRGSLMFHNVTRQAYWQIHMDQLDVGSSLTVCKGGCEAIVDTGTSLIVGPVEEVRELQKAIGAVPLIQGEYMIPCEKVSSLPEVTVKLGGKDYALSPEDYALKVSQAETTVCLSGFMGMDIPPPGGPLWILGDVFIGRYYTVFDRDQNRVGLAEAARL
Procedure for cathepsin D: Activity of cathepsin B was assessed by monitoring hydrolysis of Z-LR-AMC (Enzo Life Sciences International), that of cathepsin D using the Cathepsin D Assay Kit (Sigma-Aldrich), and that of the 20S proteasome using the 20S Proteasome Assay Kit for Drug Discovery (Enzo Life Sciences International).

Take `CCN1C(=O)C=CC1=O` [N-ethylmaleimide]: on IDE [1], the IC50 (as a rule, the midpoint of a concentration-inhibition curve) was 220000 nM.

For the molecule `N=C(N)NCCC[C@@H](NC(=O)[C@H](N)Cc1ccc(O)cc1)C(=O)N[C@@H](CC(=O)NO)Cc1ccc(F)cc1` [4-fluorophenylalanine], the Ki at IDE [2] (setting [10]) turned out to be 7000 nM.

For `COc1ccc(S(=O)(=O)N2Cc3ccccc3C[C@@H]2C(=O)NO)cc1` [MMP-8 Inhibitor I, reference compound], the IC50 against IDE [2] is over 100000 nM; with MMP-8, 4 nM.

On to `CC(=O)N[C@H](CCC(=O)NCCNc1cccc2c(S(=O)(=O)O)cccc12)C(=O)N[C@H](Cc1ccc(O)cc1)C(=O)N[C@H](Cc1ccc(C(=O)c2ccccc2)cc1)C(=O)N[C@@H](CC(=O)NO)Cc1ccc2ccccc2c1` [ML3-XF, Hx-2Nap-Bpa-Tyr-Glu(EDANS)-Ac], for which the “insulin-stimulated IR autophosphorylation” value in data set [3] is given as “consistently potentiated”. Besides, the “decrease of prebound 125I-insulin” value in the data set with CHO-IR cells [4] is reported as “inhibited completely”.

Regarding `N#Cc1ccc(-c2ccc(OCCC(=O)NO)cc2)cc1` [MMP-3 Inhibitor VII, reference compound], the figures for the IC50 in the data set on MMP-3 and against IDE [2] were 25 nM and over 100000 nM, respectively.

In the case of `CC(C)(C)c1ccc(C[C@H](CC(=O)NO)NC(=O)[C@@H](CCCNC(=N)N)NC(=O)[C@H](N)Cc2ccc(O)cc2)cc1` [4-(tert-butyl)-phenylalanine], the Ki at IDE [2] (setting [10]) amounted to 16000 nM.

On to `O=C(CCCN1C(=O)c2cccc3cccc(c23)C1=O)NO` [Nullscript], for which the IC50 values entry against IDE [5] is “submicromolar”. Moreover, the “effect in cell-based assays” value on IDE [6] was “ineffective”. Moreover, at IDE [2], the IC50 came to 900 nM.

Take `CC(C)C[C@H](CC(=O)NO)C(=O)N[C@H](C(=O)N[C@@H](C)C(=O)NCCN)C(C)(C)C` [TAPI-2, reference compound]: the IC50 against IDE [2] is 11000 nM; in the data set with TACE it was 5000 nM.

For `N=C(N)NCCC[C@@H](NC(=O)[C@H](N)Cc1ccc(O)cc1)C(=O)N[C@@H](CC(=O)NO)Cc1ccc2ccccc2c1` [2-naphthylalanine], at IDE [2] (retro-inverso library), the “gain in potency relative to Phe at P1'” value is recorded as about 100 fold.

For `CC(C)C[C@H](CC(=O)NO)C(=O)N[C@@H](Cc1ccc2ccccc2c1)C(=O)N[C@@H](C)C(=O)NCCN` [TAPI-1, reference compound], the IC50 at IDE [2] is 3000 nM; in the data set with TACE, 100 nM.

`CC(C)C[C@H](CC(=O)NO)C(=O)N[C@@H](Cc1ccc2ccccc2c1)C(=O)N[C@@H](C)C(N)=O` [TAPI-0, reference compound]: the IC50 with MMP-13 is 0.2 nM; on IDE [2], 9000 nM.

In the case of `O=C(O)CN(CCN(CC(=O)O)CC(=O)O)CC(=O)O` [EDTA], the “inhibition of IDE” value on IDE [1] (ref [18], [40]) is given as “does not inhibit IDE except after prolonged incubation”.

Regarding `N=C(N)NCCC[C@@H](NC(=O)[C@H](N)Cc1ccc(O)cc1)C(=O)N[C@@H](CC(=O)NO)C(c1ccccc1)c1ccccc1` [diphenylalanine], at IDE [2] (setting [10]), the Ki was over 500000 nM.

Take `COc1ccc(S(=O)(=O)N(CC(=O)NO)CC(C)C)cc1` [MMP-3 Inhibitor II, reference compound]: the IC50 in the data set with MMP-3 is 130 nM; against IDE [2], over 100000 nM.

Take `O=C(NO)[C@@H](Cc1ccccc1)NS(=O)(=O)c1ccc(-c2ccccc2)cc1` [MMP-2/9 Inhibitor II, reference compound]: the IC50 with MMP-2 was 17 nM; at IDE [2], over 100000 nM.

Regarding `N=C(N)NCCC[C@@H](NC(=O)[C@H](N)Cc1ccc(O)cc1)C(=O)N[C@@H](CC(=O)NO)Cc1cccc2ccccc12` [1-naphthylalanine], the Ki on IDE [2] (setting [10]) was 700 nM.

Turning to `N=C(N)NCCC[C@H](NC(=O)[C@@H](CC(=O)NO)Cc1ccc2ccccc2c1)C(=O)N[C@@H](Cc1c[nH]c2ccccc12)C(=O)N[C@@H](CCC(=O)O)C(N)=O` [Ii1], the “IC50 for inhibition of degradation of extracellular insulin” value in the data set with HeLa cells and with CHO-IR cells [7] was “comparable to that obtained in vitro” in each case. Further, the “insulin catabolism (progress curve)” value in the data set with HeLa cells (Ii1 10 µM) and in the data set with CHO-IR cells [7] (Ii1 10 µM) was “completely inhibited” in each case. The “inhibition of cathepsin D” value on cathepsin D is “not”. Also, the “insulin-stimulated IR autophosphorylation” value in [3] is “consistently potentiated”. For the same molecule, the “Hill slopes for inhibition” value on IDE [2] (all substrates tested) is given as under 1. The Ki at IDE [2] (conventional peptide hydroxamates, Fig. 1, read-out: Ki) was 1.7 nM and ~1.7 nM; at IDE [2] (ki^app, Substrate: 125I-Ins), 16.3 ± 4.2 nM; on IDE [2] (ki^app, Substrate: FAβB), 15.7 ± 2 nM; at IDE [2] (ki^app, Substrate: HTRF-Ins), 16.6 ± 3.1 nM; at IDE [2] (ki^app, Substrate: SP1), 2.55 ± 0.84 nM. Further, the mode of inhibition entry on IDE [2] (hydrolysis of Aβ) and at IDE [2] (hydrolysis of insulin) was “purely competitive” in each case. Besides, the “decrease of prebound 125I-insulin” value in the data set with CHO-IR cells [4] is listed as “inhibited completely”. The “intra- and extracellular FITC fluorescence over time” value with CHO-IR cells [8] is given as “remained essentially constant”. Further, the toxicity result in the data set on CHO-IR cells [9] was “No toxicity”.

Regarding `CNC(=O)C(CCc1ccccc1)NC(=O)C(CC(=O)NO)CC(C)C` (stereo not shown) [MMP Inhibitor III, reference compound], the figures for the IC50 in the data set with MMP-13 and at IDE [2] were 0.1 nM and over 100000 nM, respectively.

For `CNC(=O)[C@H](Cc1c[nH]c2ccccc12)NC(=O)[C@@H](CC(=O)NO)CC(C)C` [GM6001 (Galardin), reference compound], the IC50 was 6000 nM on IDE [2] and […] in the data set with MMP-8.

For `c1cnc2c(c1)ccc1cccnc12` [1,10 phenanthroline], on IDE [1], the IC50 is 300000 nM.

As for `N=C(N)NCCC[C@@H](NC(=O)[C@H](N)Cc1ccc(O)cc1)C(=O)N[C@@H](CC(=O)NO)Cc1cccc(F)c1` [3-fluorophenylalanine], at IDE [2] (setting [10]), the Ki amounted to 7000 nM.
